The target in one data set is T1, Histone deacetylase 11 (Homo sapiens, UniProt Q96DB2).
T1 sequence (Q96DB2 whole entry): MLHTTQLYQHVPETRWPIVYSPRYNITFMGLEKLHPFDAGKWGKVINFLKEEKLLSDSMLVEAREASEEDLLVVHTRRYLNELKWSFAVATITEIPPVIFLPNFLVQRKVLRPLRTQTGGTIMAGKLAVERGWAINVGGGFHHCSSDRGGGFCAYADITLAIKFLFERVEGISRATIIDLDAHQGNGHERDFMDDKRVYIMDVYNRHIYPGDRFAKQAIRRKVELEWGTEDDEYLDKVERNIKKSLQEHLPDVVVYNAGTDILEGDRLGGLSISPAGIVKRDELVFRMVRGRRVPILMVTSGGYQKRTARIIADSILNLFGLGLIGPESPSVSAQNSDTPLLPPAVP
Kind of data set: Inhibition of full length recombinant human HDAC11 expressed in baculoviral expression system using FAM-RHKK as substrate by electrophoretic mobility shift assay. For orientation: Mobility shift assays separate free from complexed probe on a gel.

In data set [1] the target is T2, Protein deacetylase HDAC6 (Homo sapiens, UniProt Q9UBN7).
T2 sequence (Q9UBN7 whole entry): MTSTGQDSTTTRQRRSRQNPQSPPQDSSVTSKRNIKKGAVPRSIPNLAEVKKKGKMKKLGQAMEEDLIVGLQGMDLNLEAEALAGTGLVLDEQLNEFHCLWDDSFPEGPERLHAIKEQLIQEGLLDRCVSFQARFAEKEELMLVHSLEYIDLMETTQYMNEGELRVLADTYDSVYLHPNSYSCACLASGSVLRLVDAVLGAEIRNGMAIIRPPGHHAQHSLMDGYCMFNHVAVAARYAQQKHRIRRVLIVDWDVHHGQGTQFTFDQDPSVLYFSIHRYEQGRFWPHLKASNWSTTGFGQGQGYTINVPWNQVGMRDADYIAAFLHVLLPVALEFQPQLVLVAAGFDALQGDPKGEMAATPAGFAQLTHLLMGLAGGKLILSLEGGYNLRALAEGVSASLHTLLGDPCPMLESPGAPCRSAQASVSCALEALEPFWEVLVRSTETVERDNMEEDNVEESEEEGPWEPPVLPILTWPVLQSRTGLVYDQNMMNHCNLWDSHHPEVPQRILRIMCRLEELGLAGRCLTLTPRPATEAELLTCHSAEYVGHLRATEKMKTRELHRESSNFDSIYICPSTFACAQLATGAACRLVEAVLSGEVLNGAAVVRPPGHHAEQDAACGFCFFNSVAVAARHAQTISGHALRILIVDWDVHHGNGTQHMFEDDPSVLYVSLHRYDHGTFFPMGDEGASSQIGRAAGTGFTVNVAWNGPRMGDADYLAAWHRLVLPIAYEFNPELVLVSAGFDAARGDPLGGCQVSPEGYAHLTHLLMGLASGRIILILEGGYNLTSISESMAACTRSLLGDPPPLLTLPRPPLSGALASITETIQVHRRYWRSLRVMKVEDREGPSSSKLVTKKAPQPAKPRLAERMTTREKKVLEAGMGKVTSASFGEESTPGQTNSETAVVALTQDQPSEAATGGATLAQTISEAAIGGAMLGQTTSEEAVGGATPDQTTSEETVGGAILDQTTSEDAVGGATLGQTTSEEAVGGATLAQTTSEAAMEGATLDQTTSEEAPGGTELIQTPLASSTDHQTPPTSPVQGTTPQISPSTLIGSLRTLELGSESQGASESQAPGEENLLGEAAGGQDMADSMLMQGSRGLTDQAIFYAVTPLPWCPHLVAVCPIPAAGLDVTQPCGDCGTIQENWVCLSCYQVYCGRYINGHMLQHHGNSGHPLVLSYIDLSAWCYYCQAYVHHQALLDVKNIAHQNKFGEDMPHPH
Put plainly: Inhibition of full length recombinant human HDAC6 using fluorescent-labeled peptide as substrate by electrophoretic mobility shift assay.

The nature of data set [2]: Half life in Balb/c nude mouse at 1 mg/kg, iv. The conditions noted are these: in vivo. The class given is ADME, organism-based.
Data set [3] in a line: Initial plasma concentration in Balb/c nude mouse at 1 mg/kg, iv. The class given is ADME, organism-based.
The nature of data set [4]: AUClast in Balb/c nude mouse at 1 mg/kg, iv. The class given is ADME, organism-based. Set-up: dose 1 mg/kg, time 0 - last, route intravenous. Particulars: in vivo.
Data set [5] is described as follows: Volume of distribution at steady state in Balb/c nude mouse at 1 mg/kg, iv. The conditions noted are these: in vivo, read-out: Vdss. The format is ADME, organism-based.
The nature of data set [6]: Clearance in Balb/c nude mouse at 1 mg/kg, iv. The class given is ADME, organism-based. Particulars: in vivo.
The nature of data set [7]: Intrinsic clearance in mouse liver microsomes. The class given is ADME, microsome. The conditions noted are these: read-out: CLH.
Data set [8] can be described thus: Half life in Balb/c nude mouse at 5 mg/kg, ip. The class given is ADME, organism-based. The conditions noted are these: in vivo.
Data set [9] can be described thus: Cmax in Balb/c nude mouse at 5 mg/kg, ip. Set-up: dose 5 mg/kg, route intraperitoneal. Particulars: in vivo. The format is ADME, organism-based.
Data set [10] in a line: AUClast in Balb/c nude mouse at 5 mg/kg, ip. The format is ADME, organism-based. Further details: dose 5 mg/kg, time 0 - last, route intraperitoneal. The conditions noted are these: in vivo.
A short description of data set [11]: Bioavailability in Balb/c nude mouse at 5 mg/kg, ip. The format is ADME, organism-based. Particulars: in vivo.

Where only a bound is given, the exact number is not on record here.

As for `O=C(NO)c1ccc2c(c1)CN(c1nc3ccccc3[nH]1)CC2`, the IC50 (as a rule, the concentration needed to halve the response being measured) was found to be 2.1 µM on Histone deacetylase 11 and 0.004 µM in data set [1]. In [2], the half-life (usually the time in which the quantity being followed falls by half) was 9.4 h. Besides, the C0 in [3] amounted to 3.5 µM. In addition, in data set [4], the AUC(0-t) (usually the area under the concentration-time curve up to a stated or last time point) stood at 1 µM·h. In [5], the Vd was 18 L/kg. In data set [6], the clearance (usually the volume of plasma or blood freed of the substance per unit of time) is 42 mL/min/kg.
On to `O=C(NO)c1cccc2c1CN(c1nc3ccccc3[nH]1)C2`, for which the results for the IC50 (at Histone deacetylase 11; in [1]) were 0.17 µM and above 10 µM, respectively. For the same molecule, the microsomal CLint in data set [7] was 17 µL/min/mg. The molecule further had a half-life in [8] of 10.2 h. In addition, the highest level in data set [9] (Cmax) was 4.2 µM. Also, the area under the curve AUC(0-t) in data set [10] turned out to be 3.8 µM·h. For the same molecule, the bioavailability – broadly, the share of a dose that reaches the circulation, judged against a reference dose that is usually intravenous – in data set [11] turned out to be 81%.
